molecular target: urease enzyme (Canavalia ensiformis, UniProt P07374); format: biochemical
Sequence (P07374 whole entry, looked up): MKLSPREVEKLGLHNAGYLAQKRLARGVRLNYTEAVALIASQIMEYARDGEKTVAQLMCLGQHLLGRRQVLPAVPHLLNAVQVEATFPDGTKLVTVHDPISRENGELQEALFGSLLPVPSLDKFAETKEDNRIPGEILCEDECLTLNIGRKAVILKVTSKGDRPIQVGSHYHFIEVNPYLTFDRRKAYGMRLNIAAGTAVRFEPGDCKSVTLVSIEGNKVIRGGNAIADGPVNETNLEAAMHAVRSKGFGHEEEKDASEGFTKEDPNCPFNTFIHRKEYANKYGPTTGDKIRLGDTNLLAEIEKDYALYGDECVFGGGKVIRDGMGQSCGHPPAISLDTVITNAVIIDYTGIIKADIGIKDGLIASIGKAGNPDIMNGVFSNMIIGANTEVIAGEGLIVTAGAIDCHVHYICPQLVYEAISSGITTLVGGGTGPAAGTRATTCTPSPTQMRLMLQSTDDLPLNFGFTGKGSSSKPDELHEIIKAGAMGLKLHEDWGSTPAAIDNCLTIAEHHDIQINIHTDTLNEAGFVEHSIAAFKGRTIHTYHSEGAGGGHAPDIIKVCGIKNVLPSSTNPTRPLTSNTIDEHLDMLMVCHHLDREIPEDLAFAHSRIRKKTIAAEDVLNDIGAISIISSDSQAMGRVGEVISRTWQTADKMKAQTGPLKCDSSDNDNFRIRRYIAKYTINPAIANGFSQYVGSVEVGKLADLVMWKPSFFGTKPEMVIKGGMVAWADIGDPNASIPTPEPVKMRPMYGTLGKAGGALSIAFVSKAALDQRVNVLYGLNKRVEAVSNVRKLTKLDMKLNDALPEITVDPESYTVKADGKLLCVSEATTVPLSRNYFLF

| Structure (SMILES) | potency as urease inhibitor compared to the standard drug thiourea |
| --- | --- |
| CN(C)c1ccc(-c2coc(N/N=C\c3cnc4ccc(F)cn34)n2)cc1 [4 l, (Z)-4-(2-(2-((6-fluoroimidazo[1,2-a]pyridin-3-yl)methylene)hydrazineyl)oxazol-4-yl)-N,N-dimethylaniline] | three-fold least potency |
| Fc1ccc2ncc(/C=N\Nc3nc(-c4ccc(-c5ccccc5)cc4)co3)n2c1 [4c, (Z)-4-([1,1'-biphenyl]-4-yl)-2-(2-((6-fluoroimidazo[1,2-a]pyridin-3-yl)methylene)hydrazineyl)oxazole] | three-fold least potent |
| Cc1ccc(-c2ccc(-c3coc(N/N=C\c4cnc5ccc(F)cn45)n3)cc2)cc1 [4f, (Z)-2-(2-((6-fluoroimidazo[1,2-a]pyridin-3-yl)methylene)hydrazineyl)-4-(4'-methyl-[1,1'-biphenyl]-4-yl)oxazole] | three-fold least potent |
| Cc1ccccc1-c1coc(N/N=C\c2cnc3ccc(F)cn23)n1 [4p, (Z)-2-(2-((6-fluoroimidazo[1,2-a]pyridin-3-yl)methylene)hydrazineyl)-4-(o-tolyl)oxazole] | three-fold least potency |

From PMC10336670 (Saudi Pharmaceutical Journal : SPJ, 2023)
